Data published in patent publication US20050170022A1, “Extracts of blueberries with anti-oxidant and anti-cancer properties” (priority 2001, published 2005).

Columns and labels:
[1] = Rancimat test, oxidative stability of lard; settings: for Induction Time / Anti-oxidant Index: lard samples; for Anti-oxidant Index: lard negative control = 1.00
Protocol: The potential anti-oxidative properties of the seven compounds was also tested. Experiments were performed using the Rancimat method, a common method for measurement of anti-oxidant activity of both synthetic and natural anti-oxidants. The method is based on measuring changes in electrical conductivity of water caused by the formation of short-chain compounds when fats and oils are oxidized under elevated temperature and accelerated aeration. Using lard samples, the effects of each of the seven compounds on the oxidative stability of lard was determined. The anti-oxidative activity levels of the compounds isolated from blueberry are shown below in Table 1. The levels of anti-oxidant activity can be compared with a known anti-oxidant compound BHT.

HL-60 cells = assay: Cytotoxicity in human leukemia cells (HL-60), tritiated thymidine uptake; type: cell-based; settings: for IC50, inhibition of DNA synthesis (tritiated thymidine uptake): 90 minutes at 37 C
Protocol: The structure and identification of the seven isolated compounds was then determined using NMR. […] Verification after NMR was made by comparing mass spectra with the literature and by comparing the spectra with authentic compounds using thin layer chromatography. […] Using a well-established screening assay for cytotoxicity, the compounds were tested in a human leukemia cell line (HL-60) for their ability to inhibit growth of these cells in culture. This assay is routinely used by those of skill to determine the potential anti-carcinogenic activity of chemicals where anti-carcinogenic activity is correlated with growth inhibitory activity in HL-60 cells. Uptake of tritiated thymidine into cells, a measure of the level of DNA synthesis and thus cell growth, was determined in the cells both with and without the presence of each of the seven blueberry extract compounds.
HL-60 cells were cultivated in 1.62% RPMI 1640 medium supplemented with 10% fetal calf serum and 1% penicillin-streptomycin. The concentration of the cells in the medium was kept between 2 and 10×10^5 counts/ml. Cell concentrations were counted at the beginning of each experiment with a microscope. Cells were washed without antibiotics and collected by centrifugation. The cells were then diluted to 3×10^5 counts/ml with cold medium without antibiotics. Tritiated thymidine was mixed into the cold medium at a concentration of 150 Ci/mmol. The samples to be tested were dissolved in DMSO at concentrations between 0.1 g/L and 50 ug/L. A 2 microliter sample of each concentration was added to 6 ml tubes, using triplicate tubes for reproducibility. A 1 ml sample of the HL-60 cell culture was added to each tube, […]. The tubes were incubated at 37 C for 90 minutes and then cooled over ice. Cold PBS was added to each tube and they were centrifuged at 1000 rpm for 5 minutes. The supernatant was discarded and distilled water mixed with the cells. Free and bound tritiated thymidine levels were measured by scintillation counting.

[2] = system: human colon (HCT-8) tumor cells; settings: cited from earlier work

SMILES	Induction Time [1] [h]	Anti-oxidant Index [1]	inhibition of DNA synthesis / cell growth in HL-60 cells (in words) (HL-60 cells)	IC50, inhibition of DNA synthesis (tritiated thymidine uptake) (HL-60 cells) [ppm]	cytotoxicity (in words) [2]	oxidation-inhibition activity (in words) [1]
CC[C@H](CC[C@@H](C)[C@H]1CC[C@H]2[C@@H]3CC=C4C[C@@H](O[C@@H]5O[C@H](CO)[C@@H](O)[C@H](O)[C@H]5O)CC[C@]4(C)[C@H]3CC[C@]12C)C(C)C [Sitosterol-β-D-glucoside, sitosterol-β-D-glucoside]	2.4	1.14				
COc1cc(C(=O)O)cc(OC)c1O [Syringic Acid, syringic acid]	3.1	1.48				
Cc1cc(C(C)(C)C)c(O)c(C(C)(C)C)c1 [BHT, reference compound]	5.8	2.76				
C[C@H]1[C@H](C)CC[C@]2(C(=O)O)CC[C@]3(C)C(=CC[C@@H]4[C@@]5(C)CC[C@H](O)C(C)(C)[C@@H]5CC[C@]43C)[C@H]12 [Urosolic Acid, urosolic acid]	2.2		effectively inhibit DNA synthesis	1.5	marginal cytotoxicity	
C[C@@H]1CC[C@]2(C(=O)O)CC[C@]3(C)C(=CC[C@@H]4[C@@]5(C)CC[C@H](O)C(C)(C)[C@@H]5CC[C@]43C)[C@@H]2[C@]1(C)O [3β,19α-Dihydroxy-urs-12-en-28-oic Acid, 3β,19α-dihydroxy-urs-12-en-28-oic acid]	2.2	1.05	effectively inhibit DNA synthesis	1		
O=C(O)c1cc(O)c(O)c(O)c1 [Gallic Acid, gallic acid]	28.1	13.38				high oxidation-inhibition activity
O=C(O)c1ccc(O)c(O)c1 [Protocatechuic Acid, protocatechuic acid]	18.5	8.81				high oxidation-inhibition activity
O=Cc1ccc(CO)o1 [5-Hydroxymethyl-2-furfural, 5-hydroxymethyl-2-furfural]	2.1	1.00				
